According to patent US7622481B2, “Antibacterial compounds” (priority 2003, dated 2009):
Structures can show the parent of a compound that is named as a salt. Where two headings read alike, the source gives them in different places.

Experiment: MIC of test compounds against various organisms
Format: cell-based
Method: The MIC (μg/ml) of test compounds against various organisms was determined including:
S. epidermidis CL7, S. aureus WCUH29, S. pneumoniae 1629, S. pyogenes CN10, H. influenzae ATCC 49247, E. faecalis 2, M. catarrhalis Ravasio, E. coli 7623.

[1] = versus all these organisms (panel of 8 strains), read-out: MIC
[2] = versus some of these organisms (panel of 8 strains), read-out: MIC

Structure (SMILES): N#Cc1ccc2cccc(NC(=O)[C@H]3CC[C@H](NCc4ccc5c(n4)NC(=O)CS5)[C@H](O)C3)c2n1 [Example 12, (1 S,3R,4S)-3-Hydroxy-4-[(3-oxo-3,4-dihydro-2H-pyrido[3,2-b][1,4]thiazin-6-ylmethyl)-amino]-cyclohexanecarboxylic acid (2-cyano-quinolin-8-yl)-amide hydrochloride]
- MIC [1]: ≤ 2 µg/mL

Structure (SMILES): COc1nccc2cccc(NC(=O)[C@]3(O)CC[C@@H](NCc4ccc5c(n4)NC(=O)CS5)CC3)c12 [Example 27, 1-Hydroxy-t-4-[(3-oxo-3,4-dihydro-2H-pyrido[3,2-b][1,4]thiazin-6-ylmethyl)-amino]-r-cyclohexanecarboxylic acid (1-methoxy-isoquinolin-8-yl)-amide hydrochloride]
- MIC [1]: ≤ 8 µg/mL

Structure (SMILES): O=C1CSc2ccc(CN[C@H]3CC[C@H](C(=O)Nc4cccc5cnccc45)CC3)cc2N1 [Example 4, trans-4-[(3-Oxo-3,4-dihydro-2H-benzo[1,4]thiazin-6-ylmethyl)-amino]-cyclohexanecarboxylic acid isoquinolin-5-ylamide]
- MIC (versus at least one of these organisms (panel of 8 strains), read-out: MIC): ≤ 16 µg/mL

Structure (SMILES): Cc1ccc2cccc(NC(=O)[C@]3(O)CC[C@@H](NCc4cc5c(cn4)OCC(=O)N5)CC3)c2n1 [Example 22, 1-Hydroxy-t-4-[(2-oxo-2,3-dihydro-1H-pyrido[3,4-b][1,4]oxazin-7-ylmethyl)-amino]-r-cyclohexanecarboxylic acid (2-methyl-quinolin-8-yl)-amide dihydrochloride]
- MIC [1]: ≤ 2 µg/mL

Structure (SMILES): CC1CNc2cccc(NC(=O)[C@]3(O)CC[C@@H](NCc4ccc5c(n4)NC(=O)CO5)CC3)c2N1 (some centres unmarked) [Example 33, 1-Hydroxy-t-4-[(3-oxo-3,4-dihydro-2H-pyrido[3,2-b][1,4]oxazin-6-ylmethyl)-amino]-c-cyclohexanecarboxylic acid (3-methyl-1,2,3,4-tetrahydro-quinoxalin-5-yl)-amide dihydrochloride]
- MIC [2]: ≤ 2 µg/mL

Structure (SMILES): COc1ccc2cccc(CCC3(O)CCC(NCc4ccc5c(n4)NC(=O)CS5)CC3)c2n1 (centres unmarked) [Example 8, 6-({4-Hydroxy-4-[2-(2-methoxy-quinolin-8-yl)-ethyl]-cyclohexylamino}-methyl)-4H-pyrido[3,2-b][1,4]thiazin-3-one]
- MIC [1]: ≤ 2 µg/mL

Structure (SMILES): COc1ccc2cccc(CC[C@]3(O)CC[C@@H](NCc4cnc5c(c4)NC(=O)CS5)CC3)c2n1 [Example 21, 7-({r-4-Hydroxy-4-[2-(2-methoxy-quinolin-8-yl)-ethyl]-c-cyclohexylamino}-methyl)-1H-pyrido[2,3-b][1,4]thiazin-2-one]
- MIC [1]: ≤ 2 µg/mL

Structure (SMILES): N#Cc1ccc2cccc(NC(=O)[C@@H]3CC[C@@H](NCc4ccc5c(n4)NC(=O)CS5)[C@H](O)C3)c2n1 [Example 14, (1R,3R,4R)-3-Hydroxy-4-[(3-oxo-3,4-dihydro-2H-pyrido[3,2-b][1,4]thiazin-6-ylmethyl)-amino]-cyclohexanecarboxylic acid (2-cyano-quinolin-8-yl)-amide hydrochloride]
- MIC [1]: ≤ 2 µg/mL

Structure (SMILES): Cc1cnc2cccc(NC(=O)[C@]3(O)CC[C@@H](NCc4cc5c(cn4)OCCO5)CC3)c2n1 [Example 42, t-4-[(2,3-Dihydro[1,4]dioxino[2,3-c]pyridin-7-ylmethyl)amino]-1-hydroxy-N-(3-methyl-5-quinoxalinyl)-r-cyclohexanecarboxamide dihydrochloride]
- MIC [1]: ≤ 8 µg/mL

Structure (SMILES): CO[C@@H]1C[C@H](C(=O)Nc2cccc3ccc(C)nc23)CC[C@H]1NCc1cc2c(cn1)OCCO2 [Example 39, (1R,3R,4R)-4-[(2,3-Dihydro-[1,4]dioxino[2,3-c]pyridin-7-ylmethyl)-amino]-3-methoxy-cyclohexanecarboxylic acid (2-methyl-quinolin-8-yl)-amide dihydrochloride]
- MIC: ≤ 2 µg/mL

Structure (SMILES): COc1ccc2cccc(NC(=O)[C@]3(O)CC[C@@H](NCc4nc5c(cc4Cl)SCC(=O)N5)CC3)c2n1 [Example 24, t-4-[(7-Chloro-3-oxo-3,4-dihydro-2H-pyrido[3,2-b][1,4]thiazin-6-ylmethyl)-amino]-1-hydroxy-r-cyclohexanecarboxylic acid (2-methoxy-quinolin-8-yl)-amide dihydrochloride]
- MIC [2]: ≤ 2 µg/mL

Structure (SMILES): COc1cnc2cccc(NC(=O)[C@]3(O)CC[C@@H](NCc4ccc5c(n4)NC(=O)CS5)CC3)c2n1 [Example 34, 1-Hydroxy-t-4-[(3-oxo-3,4-dihydro-2Hpyrido[3,2-b][1,4]thiazin-6-ylmethyl)-amino]-r-cyclohexanecarboxylic acid (3-methoxy-quinoxalin-5-yl)-amide hydrochloride]
- MIC [1]: ≤ 2 µg/mL

Structure (SMILES): Cc1ccc2cccc(NC(=O)[C@H]3CC[C@H](NCc4cc5c(cn4)OCCO5)CC3)c2n1 [Example 36, t-4-[(2,3-Dihydro-[1,4]dioxino[2,3-c]pyridin-7-ylmethyl)-amino]-cyclohexanecarboxylic acid (2-methyl-quinolin-8-yl)-amide dihydrochloride]
- MIC [1]: ≤ 8 µg/mL

Structure (SMILES): Cc1ccc2cccc(NC(=O)[C@]3(O)CC[C@@H](NCc4ccc5c(n4)NC(=O)CS5)CC3)c2n1 [Example 19, 1-Hydroxy-t-4-[(3-oxo-3,4-dihydro-2H-pyrido[3,2-b][1,4]thiazin-6-ylmethyl)-amino]-r-cyclohexanecarboxylic acid (2-methyl-quinolin-8-yl)-amide dihydrochloride]
- MIC [1]: ≤ 2 µg/mL
